What was measured:
[1] = molecular target: untagged, full-length human PTPN2 (TC45) (1-387) protein (Homo sapiens (Human), UniProt P17706); test: Enzymatic assay used to determine potency of PTPN2 inhibitors (DiFMUP substrate); assay type: biochemical; details: 0.5 nM PTPN2, 100 μM DiFMUP, 30 min at room temperature
From the text: Compounds were subsequently added using a Tecan D300e dispenser. […] A four-parameter curve fit was used to determine IC50 values from % inhibition data.

[2] = tested on: murine B16F10 melanoma cell line; test: B16F10 IFNγ-induced cellular growth inhibition assay (xCELLigence RTCA); assay type: cell-based; details: Mus musculus, B16-F10, 48 h; read-out: B16 IFNγ Mediated Growth Inhibition Assay: AVG IC50
Protocol: Example B: B16F10 Cellular Growth Inhibition Assay Compound activity was determined using an interferon gamma (IFNγ)-induced cellular growth inhibition assay with the murine B16F10 melanoma cell line on an Agilent xCELLigence Real-Time Cell Analysis platform (RTCA). RTCA E-Plate View 96 plates (Agilent, 300601010) were pre-equilibrated with 50 μL of assay media (DMEM+10% FBS, Gibco 10566-024, Gibco 10082-147) at 37° C. in a humidified incubator before taking an initial measurement of impedance (sweep). B16F10 cells cultured in assay media were dissociated with TrypLE Express (Gibco 12605-010) for five minutes at 37° C., diluted in 3 volumes of assay buffer, centrifuged for 5 minutes at 500×g at room temperature before diluting cells to 7,700 cells/mL in assay media, plating 130 μL/well (1,000 cells/well) in the inner 60 wells of the assay plate, and adding 150 μL of assay media to the outer wells of the plate. Cells were incubated at room temperature for 20 min to allow cells to settle before placing them in the xCELLigence reader and incubating overnight at 37° C., sweeping wells every 15 minutes. After 24 hours, well readings were paused, plates were removed from the incubator and compounds were added using a Tecan D300e dispenser. All wells were normalized to a final concentration of 0.5% DMSO. Following a 30 min incubation at 37° C., recombinant mouse IFNγ (R&D Systems™ 485MI100) was diluted to 10 ng/mL in assay media and 20 μL was added to assay wells (1 ng/mL final concentration). Assay plates were placed in the xCELLigence reader and swept every 15 minutes. After 48 hours, well readings were normalized to the time point immediately preceding compound addition and the area under the growth curve (AUC) was calculated by the RTCA software and exported.

Sequence of untagged, full-length human PTPN2 (TC45) (1-387) protein (P17706 other isoform, or with tags, fused parts or gaps): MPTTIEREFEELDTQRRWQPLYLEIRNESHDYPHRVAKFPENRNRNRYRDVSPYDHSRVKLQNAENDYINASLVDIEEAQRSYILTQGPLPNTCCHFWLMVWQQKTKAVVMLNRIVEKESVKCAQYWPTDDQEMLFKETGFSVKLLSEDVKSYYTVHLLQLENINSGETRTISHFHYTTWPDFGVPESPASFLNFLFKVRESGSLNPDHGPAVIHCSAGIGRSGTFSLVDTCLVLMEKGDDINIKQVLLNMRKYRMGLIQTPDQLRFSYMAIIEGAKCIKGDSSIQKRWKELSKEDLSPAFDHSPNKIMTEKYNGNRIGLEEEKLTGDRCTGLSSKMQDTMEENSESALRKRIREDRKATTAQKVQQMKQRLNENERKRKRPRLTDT

Compound | IC50 [2] | IC50 [1]
NCC[C@@H]1CCc2cc(O)c(N3CC(=O)NS3(=O)=O)c(F)c2CC1 (single isomer, unassigned) [Example 1] |  | 5.07 nM
NCC[C@H]1CCc2cc(O)c(N3CC(=O)NS3(=O)=O)c(F)c2CC1 (single isomer, unassigned) [Example 2] |  | 176 nM
N[C@H]1CCc2cc(O)c(N3CC(=O)NS3(=O)=O)c(F)c2CC1 (single isomer, unassigned) [Example 6] | 1630 nM | 5.67 nM
O=C1CN(c2c(O)cc3c(c2F)CC[C@H](N2CCCC2)CC3)S(=O)(=O)N1 (single isomer, unassigned) [Example 15] | 16800 nM | 79.5 nM
O=C1CN(c2c(O)cc3c(c2F)CC[C@@H](N2CCC4(CCC4)C2)CC3)S(=O)(=O)N1 (single isomer, unassigned) [Example 16] | 6660 nM | 10.7 nM
O=C1CN(c2c(O)cc3c(c2F)CC[C@H](N2CCC4(CCC4)C2)CC3)S(=O)(=O)N1 (single isomer, unassigned) [Example 17] | 13500 nM | 93 nM
CN(C)[C@H]1CCc2cc(O)c(N3CC(=O)NS3(=O)=O)c(F)c2CC1 (single isomer, unassigned) [Example 18] | > 100000 nM | 879 nM
CN(C)[C@@H]1CCc2cc(O)c(N3CC(=O)NS3(=O)=O)c(F)c2CC1 (single isomer, unassigned) [Example 19] | 2690 nM | 12.4 nM
CCN[C@H]1CCc2cc(O)c(N3CC(=O)NS3(=O)=O)c(F)c2CC1 (single isomer, unassigned) [Example 20] | 4130 nM | 12.7 nM
CNC[C@@H]1CCc2cc(O)c(N3CC(=O)NS3(=O)=O)c(F)c2CC1 (single isomer, unassigned) [Example 24] |  | 75 nM
CC(C)CCN[C@@H]1CCCc2cc(O)c(N3CC(=O)NS3(=O)=O)c(F)c2C1 (single isomer, unassigned) [Example 27] | > 71100 nM | 215 nM
CNC1CCc2cc(O)c(N3CC(=O)NS3(=O)=O)c(F)c2CC1 (stereo not shown) [Example 3] | 5140 nM | 16.5 nM
O=C1CN(c2c(O)cc3c(c2F)CCC(O)CC3)S(=O)(=O)N1 (stereo not shown) [Example 8] | 1590 nM | 47.3 nM
CC(C)(C)NC1CCc2cc(O)c(N3CC(=O)NS3(=O)=O)c(F)c2CC1 (stereo not shown) [Example 13] | > 100000 nM | 85.3 nM
CC(C)CCNC1CCc2cc(O)c(N3CC(=O)NS3(=O)=O)c(F)c2CC1 (stereo not shown) [Example 22] |  | 24.5 nM
O=C1CN(c2c(O)cc3c(c2F)CCNCC3)S(=O)(=O)N1 [Example 30, 5-(6-fluoro-8-hydroxy-2,3,4,5-tetrahydro-1H-benzo[d]azepin-7-yl)-1,2,5-thiadiazolidin-3-one 1,1-dioxide] | 996 nM | 2.28 nM
CN(C)CCC1CCc2cc(O)c(N3CC(=O)NS3(=O)=O)c(F)c2CC1 (stereo not shown) [Example 33] |  | 21.1 nM

Further lines, with some results ahead:

IC50 [2] | Compound | IC50 [1]
> 100000 nM | N[C@@H]1CCc2cc(O)c(N3CC(=O)NS3(=O)=O)c(F)c2CC1 (single isomer, unassigned) [Example 7] | 444 nM
6630 nM | O=C1CN(c2c(O)cc3c(c2F)CC[C@@H](NCCC2CCCC2)CC3)S(=O)(=O)N1 (single isomer, unassigned) [Example 10] | 5 nM
> 100000 nM | O=C1CN(c2c(O)cc3c(c2F)CC[C@H](NCCC2CCCC2)CC3)S(=O)(=O)N1 (single isomer, unassigned) [Example 11] | 149 nM
15200 nM | O=C1CN(c2c(O)cc3c(c2F)CC[C@@H](N2CCCC2)CC3)S(=O)(=O)N1 (single isomer, unassigned) [Example 14] | 13.6 nM
54000 nM | CCN[C@@H]1CCc2cc(O)c(N3CC(=O)NS3(=O)=O)c(F)c2CC1 (single isomer, unassigned) [Example 21] | 374 nM
2160 nM | CNC[C@H]1CCc2cc(O)c(N3CC(=O)NS3(=O)=O)c(F)c2CC1 (single isomer, unassigned) [Example 23] | 2 nM
5020 nM | CC(C)CCN[C@H]1CCCc2cc(O)c(N3CC(=O)NS3(=O)=O)c(F)c2C1 (single isomer, unassigned) [Example 26] | 19.8 nM
2890 nM | CN(C)C1CCc2cc(O)c(N3CC(=O)NS3(=O)=O)c(F)c2CC1 (stereo not shown) [Example 4] | 14.9 nM
2490 nM | CCNC1CCc2cc(O)c(N3CC(=O)NS3(=O)=O)c(F)c2CC1 (stereo not shown) [Example 5] | 17.5 nM
4150 nM | O=C1CN(c2c(O)cc3c(c2F)CCC(N2CCCC2)CC3)S(=O)(=O)N1 (stereo not shown) [Example 9] | 21.6 nM
4060 nM | O=C1CN(c2c(O)cc3c(c2F)CCC(NC2CCCC2)CC3)S(=O)(=O)N1 (stereo not shown) [Example 12] | 19.8 nM
7080 nM | CC(C)CCNC1CCCc2cc(O)c(N3CC(=O)NS3(=O)=O)c(F)c2C1 (stereo not shown) [Example 25, 5-(1-fluoro-3-hydroxy-8-(isopentylamino)-6,7,8,9-tetrahydro-5H-benzo[7]annulen-2-yl)-1,2,5-thiadiazolidin-3-one 1,1-dioxide] | 25.9 nM
> 61200 nM | CC(C)CCN(C)C1CCCc2cc(O)c(N3CC(=O)NS3(=O)=O)c(F)c2C1 (stereo not shown) [Example 28, 5-(1-fluoro-3-hydroxy-8-(isopentyl(methyl)amino)-6,7,8,9-tetrahydro-5H-benzo[7]annulen-2-yl)-1,2,5-thiadiazolidin-3-one 1,1-dioxide] | 39.9 nM
13600 nM | O=C1CN(c2c(O)cc3c(c2F)CCCCC3)S(=O)(=O)N1 [Example 29, 5-(1-fluoro-3-hydroxy-6,7,8,9-tetrahydro-5H-benzo[7]annulen-2-yl)-1,2,5-thiadiazolidin-3-one 1,1-dioxide] | 109 nM
1730 nM | CC(C)CCCN1CCc2cc(O)c(N3CC(=O)NS3(=O)=O)c(F)c2CC1 [Example 31, 5-(6-fluoro-8-hydroxy-3-(4-methylpentyl)-2,3,4,5-tetrahydro-1H-benzo[d]azepin-7-yl)-1,2,5-thiadiazolidin-3-one 1,1-dioxide] | 1.06 nM
14900 nM | N#CCC1CCc2cc(O)c(N3CC(=O)NS3(=O)=O)c(F)c2CC1 (stereo not shown) [Example 32] | 46.9 nM

From patent publication US20250129032A1 (Nerio Therapeutics, Inc., priority 2022, published 2025)
